Active and inactive are the calls of the source. The calls are words filed in the database; no cut-off is given here.
Columns and labels:
HCT-116 [1] = test: Induction of autophagy in human HCT-116 cells expressing ATG5-FLAG assessed as increase in LC3-II expression upto 4 uM measured after 24 hrs by Western blot analysis; type: functional, cell-based
HCT-116 [2] = test: Antiproliferative activity against human HCT-116 cells expressing ATG5-FLAG assessed as inhibition of cell growth measured after 24 hrs by CCK-8 assay; type: functional, cell-based; conditions: HCT-116, 24 h
HCT-116 [3] = test: Induction of apoptosis in p53 knockout human HCT-116 cells assessed as increase in caspase 3 expression upto 5 uM incubated for 24 hrs by Western blot analysis; type: functional, cell-based
KB = test: Antiproliferative activity against human KB cells assessed as inhibition of cell growth measured after 48 hrs by MTT assay; type: functional, cell-based
HCT-116 [4] = test: Induction of autophagy in human HCT-116 cells assessed as increase in p62 expression upto 5 uM incubated for 24 hrs by Western blot analysis; type: functional, cell-based
HCT-116 [5] = test: Induction of apoptosis in human HCT-116 cells assessed as necrotic cells at 2 uM incubated for 24 hrs by annexin V FITC/propidium iodide staining based flow cytometry (reference value: 7.7%); type: functional
HCT-116 [6] = test: Induction of apoptosis in human HCT-116 cells assessed as late apoptotic cells at 1 uM incubated for 24 hrs by annexin V FITC/propidium iodide staining based flow cytometry (reference value: 4.6%); type: functional
HCT-116 [7] = test: Induction of autophagy in human HCT-116 cells assessed as increase in LC3-II expression at 3 uM measured upto 36 hrs by Western blot analysis; type: functional, cell-based
HCT-116 [8] = test: Induction of apoptosis in ATG5 knockout human HCT-116 cells assessed as increase in caspase 3 expression upto 4 uM incubated for 24 hrs by Western blot analysis; type: functional, cell-based
HCT-116 [9] = test: Induction of apoptosis in human HCT-116 cells assessed as early apoptotic cells at 1 uM incubated for 24 hrs by annexin V FITC/propidium iodide staining based flow cytometry (reference value: 4.7%); type: functional
HCT-116 [10] = test: Induction of autophagy in human HCT-116 cells assessed as increase in p62 expression at 3 uM measured upto 36 hrs by Western blot analysis; type: functional, cell-based
HCT-116 [11] = test: Antiproliferative activity against human HCT-116 cells expressing ATG7-FLAG assessed as inhibition of cell growth measured after 24 hrs by CCK-8 assay; type: functional, cell-based; conditions: HCT-116, 24 h
HCT-116 [12] = test: Induction of autophagy in human HCT-116 cells assessed as increase in LC3-II expression at 3 uM measured after 48 to 60 hrs by Western blot analysis; type: functional, cell-based; conditions: time 48-60 hrs
HCT-116 [13] = test: Induction of apoptosis in human HCT-116 cells assessed as early apoptotic cells at 2 uM incubated for 24 hrs in presence of Z-VAD-FMK by annexin V FITC/propidium iodide staining based flow cytometry (reference value: 6.3 %); type: functional
HCT-116 [14] = test: Induction of autophagy in human HCT-116 cells expressing ATG7-FLAG assessed as increase in LC3-II expression upto 4 uM measured after 24 hrs by Western blot analysis; type: functional, cell-based
HCT-116 [15] = test: Inhibition of colony formation in human HCT-116 cells at 1 to 4 uM measured after 14 days by crystal violet staining based analysis; type: functional, cell-based; conditions: dose 1-4 µM, time 14.0 day
HCT-116 [16] = test: Induction of morphological changes in human HCT-116 cells assessed as reduction in intercellular contact at 2 to 6 uM measured after 24 hrs by microscopic analysis; type: functional, cell-based; conditions: dose 2-6 µM
HCT-116 [17] = test: Downregulation of mTORC1 signaling pathway in human HCT-116 cells at 2 uM incubated for 24 hrs by RNA sequencing analysis; type: functional, cell-based
HT-29 = test: Antiproliferative activity against human HT-29 cells assessed as inhibition of cell growth measured after 48 hrs by MTT assay; type: functional, cell-based; conditions: HT-29, 48 h
HCT-116 [18] = test: Induction of morphological changes in human HCT-116 cells assessed as appearance of round cells at 2 to 6 uM measured after 24 hrs by microscopic analysis; type: functional, cell-based; conditions: dose 2-6 µM
HCT-116 [19] = test: Induction of apoptosis in human HCT-116 cells assessed as viable cells at 1 uM incubated for 24 hrs by annexin V FITC/propidium iodide staining based flow cytometry (reference value: 83 %); type: functional; conditions: read-out: Activity
[20] = Antiproliferative activity against human BIU-87 cells assessed as inhibition of cell growth measured after 48 hrs by MTT assay; type: functional, cell-based; conditions: BIU87, 48 h
HCT-116 [21] = test: Antiproliferative activity against ATG5 knockout human HCT-116 cells assessed as inhibition of cell growth measured after 24 hrs by CCK-8 assay; type: functional, cell-based; conditions: HCT-116, 24 h
HCT-116 [22] = test: Induction of morphological changes in human HCT-116 cells assessed as appearance of wrinkled cells at 2 to 6 uM measured after 24 hrs by microscopic analysis; type: functional, cell-based; conditions: dose 2-6 µM
ECa-109 cell line = test: Antiproliferative activity against human Eca-109 cells assessed as inhibition of cell growth measured after 48 hrs by MTT assay; type: functional, cell-based; conditions: ECa-109, 48 h
HCT-116 [23] = test: Induction of apoptosis in ATG7 knockout human HCT-116 cells assessed as increase in caspase 3 expression upto 4 uM incubated for 24 hrs by Western blot analysis; type: functional, cell-based
CT26 [24] = test: Antitumor activity against […] CT26 cells xenografted in C57BL/6 mouse assessed as reduction in tumor weight at 45 mg/kg, ip administered once every two days measured after 16 days; type: functional; set-up: scale not given: the % may be the effect or the level left; conditions: time 16 day
HCT-116 [25] = test: Induction of apoptosis in p53 knockout human HCT-116 cells assessed as increase in LC3-II expression upto 4 uM incubated for 24 hrs by Western blot analysis; type: functional, cell-based
HCT-116 [26] = test: Induction of apoptosis in human HCT-116 cells assessed as necrotic cells at 1 uM incubated for 24 hrs in presence of Z-VAD-FMK by annexin V FITC/propidium iodide staining based flow cytometry (reference value: 2.9 %); type: functional
CT26 [27] = test: Antitumor activity against […] CT26 cells xenografted in C57BL/6 mouse assessed as reduction in tumor volume at 45 mg/kg, ip administered once every two days measured after 8 days; type: functional, organism-based; conditions: time 8.0 day
HCT-116 [28] = test: Induction of apoptosis in human HCT-116 cells assessed as late apoptotic cells at 2 uM incubated for 24 hrs by annexin V FITC/propidium iodide staining based flow cytometry (reference value: 4.6%); type: functional
HCT-116 [29] = test: Antiproliferative activity against human HCT-116 cells assessed as inhibition of cell growth at 1 to 4 uM by CCK-8 assay; type: functional, cell-based; conditions: dose 1-4 µM, time <= 7.0 day, TDE = time-dependent effect

Structure (SMILES): CN1CCN(Cc2cc3c4ccccc4n(CCCc4ccccc4)c3c(CN3CCN(C)CC3)n2)CC1
- Activity (HCT-116 [1]): Active
- IC50 (HCT-116 [2]): 4.57 µM
- Activity (HCT-116 [3]): inactive
- IC50 (KB): 8.12 µM
- Activity (HCT-116 [4]): Active
- Activity (HCT-116 [5]): 4.9%
- Activity (HCT-116 [6]): 5.6%
- Activity (HCT-116 [7]): Active
- Activity (HCT-116 [8]): inactive
- Activity (HCT-116 [9]): 5.1%
- Activity (HCT-116 [10]): Active
- IC50 (HCT-116 [11]): 5.09 µM
- Activity (HCT-116 [12]): inactive
- Activity (HCT-116 [13]): 5.4%
- Activity (HCT-116 [14]): Active
- inhibition (HCT-116 [15]): Active
- Activity (HCT-116 [16]): Active
- Activity (HCT-116 [17]): Active
- IC50 (HT-29): 2.02 µM
- Activity (HCT-116 [18]): Active
- viability at 1 µM (HCT-116 [19]): 83.3%
- IC50 [20]: 4.53 µM
- IC50 (HCT-116 [21]): 7.36 µM
- Activity (HCT-116 [22]): Active
- IC50 (ECa-109 cell line): 8.62 µM
- Activity (HCT-116 [23]): inactive
- Activity (CT26 [24]): 69.69%
- Activity (HCT-116 [25]): Active
- Activity (HCT-116 [26]): 3.6%
- Activity (CT26 [27]): Active
- Activity (HCT-116 [28]): 6.8%
- Activity (HCT-116 [29]): Tde

From ChEMBL document CHEMBL5352452, “Design, synthesis and pharmacological evaluation of β-carboline derivatives as potential antitumor agent via targeting autophagy” (Eur J Med Chem, 2023)
